# Measurements from patent US12110293B2, “Substituted triazolo quinoxaline derivatives” (GRÜNENTHAL GMBH, priority 2018, dated 2024).
# Target: T1, glucocorticoid receptor (Homo sapiens, UniProt P04150)
# T1 construct: expressed in transfected cells
# T1 sequence (P04150 524-758 limits assumed): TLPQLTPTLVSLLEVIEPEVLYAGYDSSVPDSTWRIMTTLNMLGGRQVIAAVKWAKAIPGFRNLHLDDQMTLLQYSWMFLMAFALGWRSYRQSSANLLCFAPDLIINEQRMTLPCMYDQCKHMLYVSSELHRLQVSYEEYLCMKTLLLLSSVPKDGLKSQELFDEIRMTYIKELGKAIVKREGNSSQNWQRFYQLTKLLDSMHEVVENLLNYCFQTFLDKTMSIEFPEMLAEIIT
# Assay: Agonistic mode of action on the glucocorticoid receptor (CHO-Gal4/GR luciferase reporter cell line)
# Assay type: cell-based
# Conditions: range class observed in the agonistic assay or the antagonistic assay (CHO-Gal4/GR reporter cells); table does not say which mode applies per example
# Text: Potential selective glucocorticoid receptor modulators of this intervention can be tested for modulation of the activity of the glucocorticoid receptor using cell-based assays. These assays involve a Chinese hamster ovary (CHO) cell line which contains fragments of the glucocorticoid receptor as well as fusion proteins. The glucocorticoid receptor fragments used are capable of binding the ligand (e.g. beclomethasone) to identify molecules that compete for binding with glucocorticoid receptor ligands. In more detail, the glucocorticoid receptor ligand binding domain is 25 fused to the DNA binding domain (DBD) of the transcriptionfactor GAL4 (GAL4 DBD-GR) and is stably integrated into a CHO cell line containing a GAL4-UAS-Luciferase reporter construct. […] After cell lysis the luminescence that is produced by luciferase after addition of the substrate is detected and EC50 or IC50 values can be calculated. Engagement of molecules which induce gene expression via glucocortocoid receptor binding to the DNA leads to expression of the luciferase gene under the control of the fusion protein GAL4 DBD-GR and therefore to a dose-dependent increase of the luminescence signal. Binding of molecules which repress beclomethasone-induced gene expression of the luciferase gene under the control of the fusion protein GAL4 DBD-GR leads to a dose-dependent reduction of the luminescence signal.
# Biological Assays Agonistic Mode of Action on the Glucocorticoid Receptor
# The reporter cell line CHO-Gal4/GR consisted of a Chinese hamster ovary (CHO) cell line (Leibniz Institute DSMZ—German Collection of Microorganisms and Cell CuItures GmbH: ACC-110) containing a firefly luciferase gene under the control of the GR ligand binding domain fused to the DNA binding domain (DBD) of GAL4 (GAL4 DBD-GR) stably integrated into CHO cells. This cell line was established by stable transfection of CHO cells with a GAL4-UAS-Luciferase reporter construct. In a subsequent step the ligand binding domain of the GR cloned into pIRES2-EGFP-GAL4 containing the DNA binding domain of GAL4 from pFA-AT2 was transfected. This fusion construct activated firefly luciferase expression under the control of a multimerized GAL4 upstream activation sequence (UAS). The signal of the emitted luminescence was recorded by the FLIPR^TETRA. This allowed for specific detection of ligand-induced activation of the GR and therefore for the identification of compounds with agonistic properties. The GAL4/UAS reporter was premixed with a vector that constitutively expressed Renilla luciferase, which served as an internal positive control for transfection efficiency.
# The complete culture medium for the assay was: • DMEM F-12 (1:1) MIXTURE (LONZA cat. N°: BE04-687F/U1) 500 mL • 5 mL of 100 mM Sodium Pyruvate (LONZA cat. N°: BE12-115E) • 25 mL of 7.5% Sodium Bicarbonate (LONZA cat. N° BE17-613E) • 6.5 mL of 1 M Hepes (LONZA cat. N°: BE17-737E) • 5 mL of 100× Penicillin/Streptomycin (LONZA cat. N° DE17-602E) • 50 mL of Fetal Bovine Serum (Euroclone cat. N° ECS 0180L) • 0.25 mL of 10 mg/mL Puromycin (InvivoGen cat.: ant-pr-1) • 0.5 mL of 100 mg/mL Zeocin (InvivoGen cat.: ant-zn-1)
# Cryo-preserved CHO-Gal4/GR cells were suspended in complete medium and 5000 cells/25 μl/well were seeded into the wells of 384-well polystyrene assay plates (Thermo Scientific, cat. #4332) and cultured at 37° C., 5% CO2 and 95% humidity. After 24 hours growth medium was carefully removed and replaced by 30 μl Opti-MEM (GIBCO, cat. #31985062) as assay buffer. To test the compounds an 8-point half-log compound dilution curve was generated in 100% DMSO starting from a 2 mM stock and compounds were then diluted 1:50 in Opti-MEM. 10 μl of compounds were then added to the wells containing 30 μl Opti-MEM resulting in a final assay concentration range from 10 μM to 0.003 μM in 0.5% DMSO. Compounds were tested at 8 concentrations in quadruplicate data points.
row,IC50 or EC50 (agonist or antagonist mode not specified),SMILES
1,100 to 1000 nM,"Cc1c(-c2cc(F)cc3c2cnn3S(C)(=O)=O)c(Cl)cc2c1-n1c(C)nnc1C(C)(C)N2 [Example 347, 7-Chloro-8-(6-fluoro-1-methylsulfonyl-1H-indazol-4-yl)-1,4,4,9-tetramethyl-5H-[1,2,4]triazolo[4,3-a]quinoxaline]"
2,100 to 1000 nM,"Cc1nnc2n1-c1c(cc(F)c(-c3cccc4c3cc(C(F)(F)F)n4C3CC3)c1F)NC2(C)C [Example 312, 8-[1-Cyclopropyl-2-(trifluoromethyl)-1H-indol-4-yl]-7,9-difluoro-1,4,4-trimethyl-5H-[1,2,4]triazolo[4,3-a]quinoxaline]"
3,< 100 nM,"Cc1cc(-c2c(Cl)cc3c(c2C)-n2c(C)nnc2C(C)(C)N3)c2ccn(S(C)(=O)=O)c2c1 [Example 491, 7-Chloro-1,4,4,9-tetramethyl-8-(6-methyl-1-methylsulfonyl-1H-indol-4-yl)-5H-[1,2,4]triazolo[4,3-a] quinoxaline]"
4,< 100 nM,"Cc1nnc2n1-c1c(cc(F)c(-c3cc(Cl)cc4[nH]ccc34)c1F)NC2(C)C [Example 511, 8-(6-Chloro-1H-indol-4-yl)-7,9-difluoro-l,4,4-trimethyl-5H-[1,2,4]triazolo[4,3-a]quinoxaline]"
5,< 100 nM,"Cc1nnc2n1-c1c(cc(F)c(-c3cc(F)cc4[nH]ccc34)c1C(F)F)NC2(C)C [Example 466, 9-(Difluoro-methyl)-7-fluoro-8-(6-fluoro-1H-indol-4-yl)-1,4,4-trimethyl-5H-[1,2,4]triazolo [4,3-a]quinoxaline]"
6,< 100 nM,"Cc1c(-c2cc(F)cc3c(C)c[nH]c23)c(F)cc2c1-n1c(C)nnc1C(C)(C)N2 [Example 31, 7-fluoro-8-(5-fluoro-3-methyl-1H-indol-7-yl)-1,4,4,9-tetramethyl-4,5-dihydro-[1,2,4]triazolo[4,3-a]quinoxaline]"
7,100 to 1000 nM,"COc1cc2c(c(C(F)(F)F)c1-c1cc(F)cc3c1ccn3S(C)(=O)=O)-n1c(C)nnc1C(C)(C)N2 [Example 329, 8-(6-Fluoro-1-methylsulfonyl-1H-indol-4-yl)-7-methoxy-1,4,4-trimethyl-9-(trifluoromethyl)-5H-[1,2,4]triazolo[4,3-a]quinoxaline]"
8,< 100 nM,"COc1cc2c(c(C(F)(F)F)c1-c1cc(F)cc3c(C)c[nH]c13)-n1c(C)nnc1C(C)(C)N2 [Example 459, 8-(5-Fluoro-3-methyl-1H-indol-7-yl)-7-methoxy-1,4,4-trimethyl-9-(trifluoromethyl)-5H-[1,2,4]triazolo[4,3-a]quinoxaline]"
9,1000 to 15000 nM,"COc1c(-c2cccc3c2cnn3S(C)(=O)=O)c(F)cc2c1-n1c(C)nnc1C(C)(C)N2 [Example 342, 7-Fluoro-9-methoxy-1,4,4-trimethyl-8-(1-methylsulfonyl-1H-indazol-4-yl)-5H-[1,2,4]triazolo[4,3-a] quinoxaline]"
10,100 to 1000 nM,"Cc1c(-c2cccc3c(C)n[nH]c23)c(Cl)cc2c1-n1c(C)nnc1C(C)(C)N2 [Example 368, 7-Chloro-1,4,4,9-tetramethyl-8-(3-methyl-1H-indazol-7-yl)-5H-[1,2,4]triazolo[4,3-a]quinoxaline]"
11,< 100 nM,"Cc1nnc2n1-c1c(cc(F)c(-c3cccc4c3ccn4C(=O)CN(C)C)c1F)NC2(C)C [Example 223, 1-[4-(7,9-Difluoro-1,4,4-trimethyl-5H-[1,2,4]triazolo[4,3-a]quinoxalin-8-yl)-1H-indol-1-yl]-2-dimethylamino-ethanone]"
12,1000 to 15000 nM,"COCCn1ccc2c(-c3c(OC)cc4c(c3F)-n3c(C)nnc3C(C)(C)N4)cc(F)cc21 [Example 353, 9-Fluoro-8-[6-fluoro-1-(2-methoxy-ethyl)-1H-indol-4-yl]-7-methoxy-1,4,4-trimethyl-5H-[1,2,4]triazolo [4,3-a]quinoxaline]"
13,1000 to 15000 nM,"COCCn1ccc2c(-c3c(C)cc4c(c3F)-n3c(C)nnc3C(C)(C)N4)cccc21 [Example 337, 9-Fluoro-8-[1-(2-methoxy-ethyl)-1H-indol-4-yl]-1,4,4,7-tetramethyl-5H-[1,2,4]triazolo[4,3-a]quinoxaline]"
14,100 to 1000 nM,"Cc1cc2c(c(F)c1-c1cc(F)cc3c(C)c[nH]c13)-n1c(C)nnc1C(C)(C)N2 [Example 364, 9-Fluoro-8-(5-fluoro-3-methyl-1H-indol-7-yl)-1,4,4,7-tetramethyl-5H-[1,2,4]triazolo[4,3-a]quinoxaline]"
15,1000 to 15000 nM,"COCCn1c(C(F)(F)F)cc2c(-c3c(F)cc4c(c3F)-n3c(C)nnc3C(C)(C)N4)cccc21 [Example 289, 7,9-Difluoro-8-[1-(2-methoxy-ethyl)-2-(trifluoromethyl)-1H-indol-4-yl]-1,4,4-trimethyl-5H-[1,2,4]triazolo[4,3-a]quinoxaline]"
16,< 100 nM,Cc1c(-c2cccc3c(C#CC(C)(C)N)c[nH]c23)c(F)cc2c1-n1c(C)nnc1C(C)(C)N2 [Example 40]
17,100 to 1000 nM,"CCS(=O)(=O)n1ncc2c(-c3c(F)cc4c(c3C(F)(F)F)-n3c(C)nnc3C(C)(C)N4)cc(F)cc21 [Example 448, 8-[1-(Ethylsulfonyl)-6-fluoro-1H-indazol-4-yl]-7-fluoro-1,4,4-trimethyl-9-(trifluoromethyl)-5H-[1,2,4]triazolo[4,3-a]quinoxaline]"
18,100 to 1000 nM,"Cc1nnc2n1-c1c(cc(F)c(-c3ccc(F)c4c3ccn4S(C)(=O)=O)c1C(F)(F)F)NC2(C)C [Example 484, 7-Fluoro-8-(7-fluoro-1-methyl-sulfonyl-1H-indol-4-yl)-1,4,4-trimethyl-9-(trifluoromethyl)-5H-[1,2,4]triazolo[4,3-a]quinoxaline]"
19,100 to 1000 nM,"Cc1nnc2n1-c1c(cc(F)c(-c3ccc(F)c4[nH]ccc34)c1F)NC2(C)C [Example 497, 7,9-Difluoro-8-(7-fluoro-1H-indol-4-yl)-1,4,4-trimethyl-5H-[1,2,4]triazolo[4,3-a]quinoxaline]"
20,< 100 nM,"Cc1c(-c2cccc3c2ccn3CC(F)F)c(F)cc2c1-n1c(C)nnc1C(C)(C)N2 [Example 330, 8-[1-(2,2-Difluoro-ethyl)-1H-indol-4-yl]-7-fluoro-1,4,4,9-tetramethyl-5H-[1,2,4]triazolo[4,3-a]quinoxaline]"
21,100 to 1000 nM,"Cc1nnc2n1-c1c(cc(Cl)c(-c3cccc4c3ccn4S(C)(=O)=O)c1F)NC2(C)C [Example 284, 7-Chloro-9-fluoro-1,4,4-trimethyl-8-(1-methylsulfonyl-1H-indol-4-yl)-5H-[1,2,4]triazolo[4,3-a]quinoxaline]"
22,100 to 1000 nM,"Cc1nnc2n1-c1c(cc(F)c(-c3cc(C(F)(F)F)cc4[nH]ccc34)c1F)NC2(C)C [Example 207, 7,9-Difluoro-1,4,4-trimethyl-8-[6-(trifluoromethyl)-1H-indol-4-yl]-5H-[1,2,4]triazolo[4,3-a]quinoxaline]"
